Data on 1 molecule can be found in patent US20090326196A1 (priority 2006, published 2009).

What is called fraction remaining is the share of the starting amount still present when the sample was taken.

The subject of one data set is T1, trypsin.
T1 construct: trypsin (from bovine pancreas, EC 3.4.21.4); from tissue; host or cells: bovine pancreas
The experiment in a line: in vitro. The class given is in vitro ADME, bovine. Conditions: bovine, isolated enzyme trypsin, pH 7.4. The method, then:
The proteolytic stability of peptides towards trypsin (from bovine pancreas, EC 3.4.21.4) was determined by an analytical RP-HPLC assay. […] The enzyme concentration (in 1 mM HCl) was determined by absorbance at 280 nm. […] The amount of enzyme was optimized so that kinetics of proteolytic reactions could be assayed by RP-HPLC (detection at 230 nm). The peptides were incubated with trypsin at 37° C. over a period of 3 h. Aliquots (10 μL) were taken at different reaction times, diluted with 0.2% TFA (440 μL) and stored at −80° C. […] The remaining full-length peptide concentration was normalized with respect to the initial concentration.
where A is the normalized concentration of peptides; k is the pseudo first order rate constant; t is the reaction time in mins; and [A]0 is the initial concentration of peptides. Each fragment cleaved from the full-length peptides was identified by ESI-MS so that cleavage patterns could be established and compared.

Data set [1] has as its system human red blood cells (hRBC). The class given is cell-based. On the procedure:
The selectivity with which the peptides are able to lyse bacterial cells compared to mammalian cells was interrogated by a hemolysis assay against human red blood cells (hRBC). […] Our results are consistent with this trend.
Fresh human red blood cells (hRBCs) were centrifuged at 3,500 rpm and washed with PBS buffer until the supernatant was clear. The hRBCs were then resuspended and diluted to a final concentration of 1% (v/v) in PBS and stored at 4° C. […] An aliquot (50 μL) of supernatant was transferred to a new 96-well plate containing 50 μL H2O in each well. The absorbance at 415 nm was measured using a plate reader. Wells containing melittin at 100-400 μg/mL served as positive controls, and wells containing only buffer and hRBCs served as negative controls. The percentage hemolysis was calculated using the equation:
where complete hemolysis is defined as the average absorbance of all wells containing 100-400 μg/[…] melittin.

Square brackets hold non-standard residues; d marks the D form. Peptide text beside a SMILES is read from it. Leu(5,5,5,5',5',5'-F6) = N[C@@H](CC(C(F)(F)F)C(F)(F)F)C(=O)O

On to `CC[C@H](C)[C@H](NC(=O)CN)C(=O)NCC(=O)N[C@@H](CCCCN)C(=O)N[C@@H](Cc1ccccc1)C(=O)N[C@@H](CC(C(F)(F)F)C(F)(F)F)C(=O)N[C@@H](Cc1c[nH]cn1)C(=O)N[C@@H](C)C(=O)N[C@@H](CC(C(F)(F)F)C(F)(F)F)C(=O)N[C@@H](CCCCN)C(=O)N[C@@H](CCCCN)C(=O)N[C@@H](Cc1ccccc1)C(=O)N[C@@H](CC(C(F)(F)F)C(F)(F)F)C(=O)N[C@@H](CCCCN)C(=O)N[C@@H](C)C(=O)N[C@@H](Cc1ccccc1)C(=O)N[C@@H](CC(C(F)(F)F)C(F)(F)F)C(=O)N[C@@H](C)C(=O)N[C@@H](CCC(=O)O)C(=O)N[C@@H](CC(C(F)(F)F)C(F)(F)F)C(=O)N[C@@H](CCSC)C(=O)N[C@@H](CC(N)=O)C(=O)N[C@@H](CO)C(N)=O` [Peptide M2F5] (H-GIGKF[Leu(5,5,5,5',5',5'-F6)]HA[Leu(5,5,5,5',5',5'-F6)]KKF[Leu(5,5,5,5',5',5'-F6)]KAF[Leu(5,5,5,5',5',5'-F6)]AE[Leu(5,5,5,5',5',5'-F6)]MNS-NH2), for which, in the data set with trypsin, the fraction remaining at 3 h, 0.25 mM is above 78%. In data set [1], the “hemolytic activity relative to parent peptide, in words” value is “significantly more hemolytic”.
